Measured values taken from US12493040B2, “Cancer detection method using sense of smell of nematode” (HIROTSU BIO SCIENCE INC., priority 2013, dated 2025).

System: RNAi-treated eri-1 (mg366) nematodes
Assay: RNAi screening of olfactory receptor genes: chemotaxis assay of RNAi-treated nematodes to odorants
Type: in vivo, Caenorhabditis elegans
Conditions: repellent or high concentration of attractant
How it was run: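 eri-1 (mg366) worms knocked down by feeding RNAi (Ahringer library) on IPTG/ampicillin NGM plates with E. coli for 4 days, then tested for chemotaxis, 30–50 worms per assay. Odorants at 1 μl of 10^−3 or 10^−4 dilution, or 1 and 5 μl undiluted. Hits scored by z score, thresholds ±1.96 (P<0.05) or ±0.96.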

chemotaxis index (Control nematodes): −0.91 ± 0.009
chemotaxis index (srh-4 RNAi-treated nematodes): −0.87
chemotaxis index (srh-7 RNAi-treated nematodes): −0.78
chemotaxis index (srh-8 RNAi-treated nematodes): −0.86
chemotaxis index (srh-10 RNAi-treated nematodes): −0.88
chemotaxis index (srh-11 RNAi-treated nematodes): −0.65
chemotaxis index (srh-15 RNAi-treated nematodes): −0.25
chemotaxis index (srh-16 RNAi-treated nematodes): −0.63
chemotaxis index (srh-18 RNAi-treated nematodes): −0.26
chemotaxis index (srh-19 RNAi-treated nematodes): −0.80
chemotaxis index (srh-22 RNAi-treated nematodes): −0.89
chemotaxis index (srh-23 RNAi-treated nematodes): −0.77
chemotaxis index (srh-24 RNAi-treated nematodes): −0.79
chemotaxis index (srh-25 RNAi-treated nematodes): −0.06
chemotaxis index (srh-27 RNAi-treated nematodes): −0.79
chemotaxis index (srh-28 RNAi-treated nematodes): −0.71
chemotaxis index (srh-36 RNAi-treated nematodes): −0.57
chemotaxis index (srh-37 RNAi-treated nematodes): −0.89
chemotaxis index (srh-39 RNAi-treated nematodes): −0.90
chemotaxis index (srh-40 RNAi-treated nematodes): −0.83
chemotaxis index (srh-41 RNAi-treated nematodes): −0.62
chemotaxis index (srh-44 RNAi-treated nematodes): −0.58
chemotaxis index (srh-45 RNAi-treated nematodes): −0.91
chemotaxis index (srh-46 RNAi-treated nematodes): −0.87
chemotaxis index (srh-48 RNAi-treated nematodes): −0.79
chemotaxis index (srh-49 RNAi-treated nematodes): −0.91
chemotaxis index (srh-50 RNAi-treated nematodes): −0.96
chemotaxis index (srh-51 RNAi-treated nematodes): −0.90
chemotaxis index (srh-52 RNAi-treated nematodes): −0.85
chemotaxis index (srh-55 RNAi-treated nematodes): −0.96
chemotaxis index (srh-59 RNAi-treated nematodes): −0.79
chemotaxis index (srh-60 RNAi-treated nematodes): −0.83
chemotaxis index (srh-61 RNAi-treated nematodes): −0.68
chemotaxis index (srh-67 RNAi-treated nematodes): −0.61
chemotaxis index (srh-68 RNAi-treated nematodes): −0.65
chemotaxis index (srh-69 RNAi-treated nematodes): −0.84
chemotaxis index (srh-70 RNAi-treated nematodes): −0.81
chemotaxis index (srh-71 RNAi-treated nematodes): −0.80
chemotaxis index (srh-72 RNAi-treated nematodes): −0.87
chemotaxis index (srh-74 RNAi-treated nematodes): −0.96
chemotaxis index (srh-75 RNAi-treated nematodes): −0.86
chemotaxis index (srh-77 RNAi-treated nematodes): −0.74
chemotaxis index (srh-79 RNAi-treated nematodes): −0.61
chemotaxis index (srh-80 RNAi-treated nematodes): −0.81
chemotaxis index (srh-82 RNAi-treated nematodes): −0.96
chemotaxis index (srh-83 RNAi-treated nematodes): −0.70
chemotaxis index (srh-97 RNAi-treated nematodes): −0.66
chemotaxis index (srh-99 RNAi-treated nematodes): −0.82
chemotaxis index (srh-100 RNAi-treated nematodes): −0.48
chemotaxis index (srh-104 RNAi-treated nematodes): −0.71
chemotaxis index (srh-105 RNAi-treated nematodes): −0.80
chemotaxis index (srh-109 RNAi-treated nematodes): −0.84
chemotaxis index (srh-111 RNAi-treated nematodes): −0.71
chemotaxis index (srh-113 RNAi-treated nematodes): −0.91
chemotaxis index (srh-115 RNAi-treated nematodes): −0.75
chemotaxis index (srh-116 RNAi-treated nematodes): −0.69
chemotaxis index (srh-118 RNAi-treated nematodes): −0.89
chemotaxis index (srh-119 RNAi-treated nematodes): −0.84
chemotaxis index (srh-120 RNAi-treated nematodes): −0.68
chemotaxis index (srh-122 RNAi-treated nematodes): −0.84
chemotaxis index (srh-123 RNAi-treated nematodes): −0.90
chemotaxis index (srh-125 RNAi-treated nematodes): −0.77
chemotaxis index (srh-128 RNAi-treated nematodes): −0.89
chemotaxis index (srh-129 RNAi-treated nematodes): −0.90
chemotaxis index (srh-130 RNAi-treated nematodes): −0.94
chemotaxis index (srh-131 RNAi-treated nematodes): −0.45
chemotaxis index (srh-132 RNAi-treated nematodes): −0.84
chemotaxis index (srh-139 RNAi-treated nematodes): −0.91
chemotaxis index (srh-140 RNAi-treated nematodes): −0.80
chemotaxis index (srh-141 RNAi-treated nematodes): −0.94
chemotaxis index (srh-142 RNAi-treated nematodes): −0.94
chemotaxis index (srh-145 RNAi-treated nematodes): −0.44
chemotaxis index (srh-148 RNAi-treated nematodes): −0.78
chemotaxis index (srh-154 RNAi-treated nematodes): −0.58
chemotaxis index (srh-159 RNAi-treated nematodes): −0.48
chemotaxis index (srh-165 RNAi-treated nematodes): −0.40
chemotaxis index (srh-166 RNAi-treated nematodes): −1.00
chemotaxis index (srh-167 RNAi-treated nematodes): −1.00
chemotaxis index (srh-169 RNAi-treated nematodes): −0.92
chemotaxis index (srh-174 RNAi-treated nematodes): −0.92
chemotaxis index (srh-179 RNAi-treated nematodes): −0.97
chemotaxis index (srh-182 RNAi-treated nematodes): −0.98
chemotaxis index (srh-186 RNAi-treated nematodes): −0.93
chemotaxis index (srh-190 RNAi-treated nematodes): −1.00
chemotaxis index (srh-193 RNAi-treated nematodes): −0.84
chemotaxis index (srh-195 RNAi-treated nematodes): −0.98
chemotaxis index (srh-201 RNAi-treated nematodes): −0.97
chemotaxis index (srh-203 RNAi-treated nematodes): −1.00
chemotaxis index (srh-204 RNAi-treated nematodes): −1.00
chemotaxis index (srh-206 RNAi-treated nematodes): −1.00
chemotaxis index (srh-207 RNAi-treated nematodes): −1.00
chemotaxis index (srh-208 RNAi-treated nematodes): −0.82
chemotaxis index (srh-209 RNAi-treated nematodes): −0.84
chemotaxis index (srh-210 RNAi-treated nematodes): −0.66
chemotaxis index (srh-214 RNAi-treated nematodes): −0.96
chemotaxis index (srh-216 RNAi-treated nematodes): −0.83
chemotaxis index (srh-217 RNAi-treated nematodes): −0.44
chemotaxis index (srh-220 RNAi-treated nematodes): −0.28
chemotaxis index (srh-222 RNAi-treated nematodes): −0.82
chemotaxis index (srh-223 RNAi-treated nematodes): −0.74
Compound: CCCCCCCC(C)=O [nonanone]
